# Measurements taken from patent US12629406B2, “Alterations in endothelin receptors following hemorrhage and resuscitation by centhaquin” (MIDWESTERN UNIVERSITY, priority 2018, dated 2026).
# Assay: Renal medullary blood perfusion (laser Doppler) in hemorrhaged rats
# Assay type: in vivo, rat
# Method: Determination of cardiovascular response. The animals were anesthetized with urethane dissolved in isotonic saline. Urethane was administered in a dose of 1.5 g per kg body weight via intraperitoneal injection. Urethane was selected as an anesthetic agent, because it produces long lasting (8-10 hours) anesthesia with minimal cardiovascular and respiratory system depression. It produces a level of surgical anesthesia characterized by preservation of cardiovascular reflexes (Maggi and Meli 1986). Briefly, anaesthetized rats were immobilized on a surgical board equipped with controlled heating pad. […] MAP and HR were measured by cannulating the left femoral artery with pressure catheter SPR-320 (Millar Instruments), connected to the ML221 bridge amplifier (AD Instruments) through AEC-10C connector and the signals were acquired (1000 S^−1) using PowerLab 16/30 data acquisition system (Gulati et al. 2012; Pacher et al. 2008). […]
# Induction of Hemorrhagic Shock. […] Measured hematocrit levels were similar in various groups. […]
# Experimental design. […] Additional experiments were also carried out where the amount of norepinephrine (a very commonly used vasopressor during resuscitation) required to maintain MAP at 70 mmHg in normal saline (NS) or centhaquin (0.01 mg/kg) treated rats (volume equal to blood loss) was determined. […]
smiles,measurement,setting,value
"Cc1cccc(N2CCN(CCc3ccc4ccccc4n3)CC2)c1 [centhaquin, 2-[2-(4-(3-methyphenyl)-1-piperazinyl)]ethyl-quinoline]",renal blood perfusion compared to equal volume of saline,hemorrhaged female rats,significantly improved
same,renal blood perfusion compared to equal volume of saline,"hemorrhaged male rats, low doses of centhaquin",significantly improved
